Consider twelve compounds from US20230056135A1, “MONOMER AND MULTIMERIC ANTI-HBV AGENTS” (priority 2018, published 2023).

One data set concerns human PBM. Nature of the data set: Cellular toxicity assay in human PBM cells. It is filed as cell-based. Here is the method:
(§1) The toxicity of the compounds was assessed in Vero, human PBM, CEM (human lymphoblastoid), MT-2, and HepG2 cells, as described previously (see Schinazi R. F., Sommadossi J.-P., Saalmann V., Cannon D. L., Xie M.-Y., Hart G. C., Smith G. A. & Hahn E. F. Antimicrob. Agents Chemother. 1990, 34, 1061-67). Cycloheximide was included as positive cytotoxic control, and untreated cells exposed to solvent were included as negative controls. The cytotoxicity IC50 was obtained from the concentration-response curve using the median effective method described previously (see Chou T.-C. & Talalay P. Adv. Enzyme Regul. 1984, 22, 27-55; Belen'kii M. S. & Schinazi R. F. Antiviral Res. 1994, 25, 1-11).

Another data set has as its system HepG2 cells. Nature of the data set: Cellular toxicity assay in HepG2 cells. It is filed as cell-based. The procedure:
as §1

The next data set has as its system wild type HBV. The data set can be described thus: Anti-HBV assay in AD-38 cell line (HBV in culture supernatant). It is filed as cell-based. Particulars: for EC50: read-out: Anti-HBV activity EC50; for EC90: read-out: Anti-HBV activity EC90. The procedure:
The anti-HBV activity of the compounds was determined by treating the AD-38 cell line carrying wild type HBV under the control of tetracycline (see Ladner S. K., Otto M. J., Barker C. S., Zaifert K., Wang G. H., Guo J. T., Seeger C. & King R. W. Antimicrob. Agents Chemother. 1997, 41, 1715-20). Removal of tetracycline from the medium [Tet (−)] results in the production of HBV. The levels of HBV in the culture supernatant fluids from cells treated with the compounds were compared with that of the untreated controls. Control cultures with tetracycline [Tet (+)] were also maintained to determine the basal levels of HBV expression. 3TC was included as positive control.
The median effective concentrations (EC50) ranges of several of the compounds described herein against HBV are shown in Table 3: […]

The subject of another data set is Vero. The data set can be described thus: Cellular toxicity assay in Vero cells. It is filed as cell-based. The procedure:
as §1

In data set [1] the test system is CEM (human lymphoblastoid). The data set can be described thus: Cellular toxicity assay in CEM cells. It is filed as cell-based. Here is the method:
as §1

A short description of data set [2]: Cellular toxicity assay in Vero cells. Particulars: African green monkey, Vero cells; read-out: Cytotoxicity; CC50 (μM) VERO. It is filed as cell-based. Here is the method: as §1
A short description of data set [3]: Cellular toxicity assay in CEM cells. It is filed as cell-based, human. As to conditions: human, CEM cells, read-out: Cytotoxicity, CC50 (μM) CEM. The procedure: as §1
Data set [4] in a line: Cellular toxicity assay in human PBM cells. It is filed as cell-based. As to conditions: human PBM cells, read-out: Cytotoxicity, CC50 (μM) PBM. Here is the method: as §1
Data set [5] is described as follows: Cellular toxicity assay in HepG2 cells. It is filed as cell-based. As to conditions: human, HepG2 cells; read-out: Cytotoxicity; CC50 (μM) HepG2. Here is the method:
as §1

Another data set concerns Glutathione levels (GSH). Nature of the data set: Glutathione levels in Huh7 cells (GSH-Glo Glutathione Assay). It is filed as cell-based. Here is the method:
Glutathione levels (GSH) were measured in Huh7 cells after 22 h treatment with 10 μM CAMs (GSH-Glo™ Glutathione Assay—Promega). Treatment of Huh7 with 10 μM positive control, L-buthionine-sulfoximine, reduced cellular GSH levels by 58% (data not shown); Samples were tested in triplicates.

[6] abbreviates: human PBM cells, read-out: Cytotoxicity, CC50 (μM) PBM.
Setting [7] is: HepG2 cells, read-out: Cytotoxicity, CC50 (μM) HepG2.
Setting [8] is: Hepatitis B virus, AD-38 cell line, Tet (-).

Read-outs that look alike come from different tables or passages of the source.

Consider “4,4′-(2,2′-(((Tetradecane-1,14-diylbis(1H-1,2,3-triazole-1,4-diyl))bis(methylene)) bis(azanediyl)) bis(2-oxoacetyl))bis(N-(3,4-difluorophenyl)-1,3,5-trimethyl-1H-pyrrole-2-carboxamide) [Compound 80]”, for which the CC50 in the data set on human PBM (setting [6]) and with HepG2 cells (setting [7]) was > 100 µM each time. Further, the EC50 with wild type HBV (AD-38 cell line, Tet (-)) is 0.001 to 0.01 µM.

As for `Cc1c(C(=O)C(=O)NCc2cn(CCCCCCCCn3cc(CNC(=O)C(=O)c4c(C)c(C(=O)Nc5ccc(F)c(F)c5)n(C)c4C)nn3)nn2)c(C)n(C)c1C(=O)Nc1ccc(F)c(F)c1` [Compound 9, 4,4′-(2,2′-(((Octane-1,8-diylbis(1H-1,2,3-triazole-1,4-diyl))bis(methylene))bis(azanediyl))bis(2-oxoacetyl))bis(N-(3,4-difluorophenyl)-1,3,5-trimethyl-1H-pyrrole-2-carboxamide)], the CC50 in the data set on Vero (Vero cells, read-out: Cytotoxicity, CC50 (μM) VERO) is > 100 µM; in [1] (CEM cells, read-out: Cytotoxicity, CC50 (μM) CEM) it was > 100 µM; in the data set on human PBM (setting [6]) it was 26.4 µM; in the data set on HepG2 cells (setting [7]) it was > 100 µM. Moreover, the EC50 in the data set on wild type HBV (AD-38 cell line, Tet (-)) was in the range of 0.1 to 1 µM. For the same compound, in the data set with wild type HBV (AD-38 cell line, Tet (-)), the EC90 lay within 1 to 10 µM.

On to `CCOC(=O)C1=C(CNCc2cn(CCCCCCCCn3cc(CNC(=O)C(=O)c4c(C)c(C(=O)Nc5ccc(F)c(F)c5)n(C)c4C)nn3)nn2)NC(c2nccs2)=NC1c1ccc(F)cc1Br` (centres unmarked) [Compound 20, Ethyl 4-(2-bromo-4-fluorophenyl)-6-((((1-(8-(4-((2-(5-((3,4-difluorophenyl)-carbamoyl)-1,2,4-trimethyl-1H-pyrrol-3-yl)-2-oxoacelamido)methyl)-1H-1,2,3-triazol-1-yl)octyl)-1H-1,2,3-triazol-4-yl)methyl)amino)methyl)-2-(thiazol-2-yl)-1,4-dihydropyrimidine-5-carboxylate], for which the CC50 was > 100 µM with Vero, > 100 µM in data set [1], 33 µM in the data set with human PBM and > 100 µM in the data set on HepG2 cells. In addition, the EC50 in the data set on wild type HBV (AD-38 cell line, Tet (-)) is 0.01 to 0.1 µM. The EC90 with wild type HBV (AD-38 cell line, Tet (-)) lay within 1 to 10 µM.

As to `O=C(NC(Br)=C(C(=O)N1CCCCC1)c1ccccc1OCCCCCCCCCCCCOc1ccccc1C(C(=O)N1CCCCC1)=C(Br)NC(=O)c1ccc([N+](=O)[O-])cc1)c1ccc([N+](=O)[O-])cc1` [Compound 28], the CC50 (in the data set on Vero; in data set [1]; in the data set on human PBM; with HepG2 cells) was > 100 µM throughout. The EC50 with wild type HBV (AD-38 cell line, Tet (-)) is 1 to 10 µM.

For the compound `CCOC(=O)C1=C(CNCc2cn(CCOCCOCCOCCOCCOCCn3cc(CNC(=O)C(=O)c4c(C)c(C(=O)Nc5ccc(F)c(F)c5)n(C)c4C)nn3)nn2)NC(c2nccs2)=NC1c1ccc(F)cc1Br` (centres unmarked) [Compound 50, Ethyl 4-(2-bromo-4-fluorophenyl)-6-((((1-(17-(4-((2-(5-((3,4-difluorophenyl)carbamoyl)-1,2,4-trimethyl-1H-pyrrol-3-yl)-2-oxoacetamido)methyl)-1H-1,2,3-triazol-1-yl)-3,6,9,12,15-pentaoxaheptadecyl)-1H-1,2,3-triazol-4-yl)methyl)amino)methyl)-2-(thiazol-2-yl)-1,4-dihydropyrimidine-5-carboxylate], the CC50 in [2] is > 100 µM; in data set [3] (CEM lymphoblastoid cells), 27 µM; in [4] (human) it was 99 µM; in [5] it was > 100 µM. For the same compound, the EC50 in the data set with wild type HBV (setting [8]) lay in the range of 0.1 to 1 µM. The EC90 with wild type HBV (setting [8]) was in the range of 1 to 10 µM.

Take `Cc1c(C(=O)C(=O)NCCCCO[P@@](=O)(N[C@@H](C)C(=O)OC(C)C)Oc2ccccc2)c(C)n(C)c1C(=O)Nc1ccc(F)c(F)c1` [Compound 58, Isopropyl ((S)-(4-(2-(5-((3,4-difluorophenyl)carbamoyl)-1,2,4-trimethyl-1H-pyrrol-3-yl)-2-oxoacetamido)butoxy)(phenoxy)phosphoryl)-L-alaninate]: the CC50 in [2] is 12 µM; in data set [3], 10 µM; in [4], 7 µM; in data set [5], 29 µM. In the data set on wild type HBV (Hepatitis B virus), the EC50 was 0.1 to 1 µM. The EC90 in the data set on wild type HBV (Hepatitis B virus) lay in the range of 1 to 10 µM.

In the case of `Cc1c(C(=O)C(=O)NCCCCCCCCO)c(C)n(C)c1C(=O)Nc1ccc(F)c(F)c1` [Compound 60, N-(3,4-Difluorophenyl)-4-(2-(8-hydroxyoctylamino)-2-oxoacetyl)-1,3,5-trimethyl-1H-pyrrole-2-carboxamide], the CC50 in data set [2] was determined as 14 µM; in data set [3] (CEM lymphoblastoid cells), 4 µM; in data set [4] (human) it was 36 µM; in [5] it was 63 µM. For the same compound, the EC50 in the data set on wild type HBV (setting [8]) was 0.01 to 0.1 µM. Besides, the EC90 in the data set on wild type HBV (setting [8]) was in the range of 0.1 to 1 µM.

For `Cc1c(C(=O)C(=O)NCCCB2OC3CC4CC(C4(C)C)C3(C)O2)c(C)n(C)c1C(=O)Nc1ccc(F)c(F)c1` (centres unmarked) [Compound 62, N-(3,4-difluorophenyl)-1,3,5-trimethyl-4-(2-oxo-2-((3-(3a,5,5-trimethylhexahydro-4,6-methanobenzo[d][1,3,2]dioxaborol-2-yl)propyl)amino)acetyl)-1H-pyrrole-2-carboxamide], the CC50 in [2] was determined as 7 µM; in [3] (CEM lymphoblastoid cells), 4 µM; in data set [4] (human) it was 13 µM; in [5], 6 µM. Also, in the data set with wild type HBV (setting [8]), the EC50 was in the range of 0.01 to 0.1 µM. For the same compound, the EC90 in the data set on wild type HBV (setting [8]) lay within 0.01 to 0.1 µM.

Take `Cc1c(C(=O)C(=O)NCCCB(O)O)c(C)n(C)c1C(=O)Nc1ccc(F)c(F)c1` [Compound 64, (3-(2-(5-((3,4-Difluorophenyl)carbamoyl)-1,2,4-trimethyl-1H-pyrrol-3-yl)-2-oxoacetamido)propyl)boronic acid]: the CC50 is 76 µM in data set [2], 26 µM in [3] (CEM lymphoblastoid cells), 62 µM in data set [4] (human) and 98 µM in [5]. Besides, the EC50 in the data set on wild type HBV (setting [8]) is 0.01 to 0.1 µM. Besides, the EC90 with wild type HBV (setting [8]) lay within 0.01 to 0.1 µM.

For `Cc1c(C(=O)C(=O)NCc2cn(CCOCCOCCOCC(CO)COCCOCCOCCn3cc(CNC(=O)C(=O)c4c(C)c(C(=O)Nc5ccc(F)c(F)c5)n(C)c4C)nn3)nn2)c(C)n(C)c1C(=O)Nc1ccc(F)c(F)c1` [Compound 101, 4,4′-(2,2′-((((11-(Hydroxymethyl)-3,6,9,13,16,19-hexaoxahenicosane-1,21-diyl)bis(1H-1,2,3-triazole-1,4-diyl))bis(methylene))bis(azanediyl))bis(2-oxoacetyl))bis(N-(3,4-difluorophenyl)-1,3,5-trimethyl-1H-pyrrole-2-carboxamide)], the CC50 in the data set with human PBM (setting [6]) and in the data set on HepG2 cells (setting [7]) was > 100 µM each time. The EC50 in the data set on wild type HBV (AD-38 cell line, Tet (-)) lay in the range of 0.01 to 0.1 µM.

For `C#CCn1c(C)c(C(=O)C(=O)NC(C#C)(CC)CC)c(C)c1C(=O)Nc1ccc(F)c(F)c1` [Compound 115, N-(3,4-Difluorophenyl)-4-(2-((3-ethylpent-1-yn-3-yl)amino)-2-oxoacetyl)-3,5-dimethyl-1-(prop-2-yn-1-yl)-1H-pyrrole-2-carboxamide], the values for the CC50 in [4] (human) and in data set [5] were 45 µM and 35 µM, respectively. Further, the “GSH levels relative to untreated control” value in the data set on Glutathione levels (GSH) (22 h treatment) was > 10 µM. For the same compound, in the data set on Glutathione levels (GSH) (Homo sapiens, Huh-7, read-out: GSH levels relative to untreated control (% inhibition at 10 μM), 22 h, 10 μM), the inhibition at 10 µM is < 1%. Also, the EC50 in the data set on wild type HBV (setting [8]) lay within 0.0001 to 0.001 µM.

Consider `CCCCS(=N)(=O)CCC(N)C(=O)O` [L-buthionine-sulfoximine, reference compound], for which the “reduction of cellular GSH levels” value with Glutathione levels (GSH) (10 μM positive control) is reported as 58%.
